What all share (assay type): cell-based
Experiment [1] has as its system Enterococcus faecium No. 569. As to the kind of experiment: Specific activity against resistant bacterial strains. As to conditions: Ent. faecium 569; 24 h, 36° C.
Experiment [2] deals with Staphylococcus epidermidis No. 533. The experiment is described as above. Conditions: St. epiderm 533; 24 h, 36° C. On the procedure: (§1) The tested agents were water-soluble hemin derivatives (compounds VII and XVIII) or DMSO-soluble derivatives (compounds VIII, XV, and XIV). Vancomycin was the reference compound. Each compound was tested in three replicas.
(§2) Sterile single-use flat-bottomed 96-well plates, Petri dishes, pipettes, tips, and test tubes (Pan-Eco, Moscow) were used in the study.
(§3) The nutritional media used were as follows. A working Mueller Hinton broth was prepared from dry media (Mueller Hinton broth, Acumedia, Baltimore) and sterilized by autoclaving at 121° C. for 15 min.
(§4) Staphylococcus aureus was cultured on the Tripticase Soy Agar (BBL) commercially available dry medium. Enterococcus faecalis was cultured on the Columbia Agar Base (BBL) commercially available dry medium. These media were sterilized by autoclaving at 121° C. for 15 min.
(§5) Bacterial inoculum was fixed and equal to 5×10^5 CFU/mL.
(§6) For water-soluble compounds, wells from 2nd through 8th were added with the solvent (water) in an amount of 15 μL per well, then the 1st well was added with 30 μL of the stock solution of the tested compound in water with a concentration of 1×10^3M, and the concentration was adjusted to 0.007×10^3 M by serial twofold dilutions. A 10-μL portion was taken from every well, and 190 μL of the bacterial culture (10^5 CFU) was added per well.
(§7) For DMSO-soluble compounds, wells from 2nd through 8th were added with the solvent (DMSO) in an amount of 10 μL per well, then the 1st well was added with 20 μL of the stock solution of the tested compound in […] with a concentration of 5×10^3M, and the concentration was adjusted to 0.039×10^3 M by serial twofold dilutions. A 2-μL portion was taken from each well, and 198 μL of the bacterial culture (10^5 CFU) was added per well.
(§8) The control comprised wells free of tested compounds (culture growth control). In addition, purity control of nutritional media and solvents was used. Plates were incubated in a thermostat at 36° C. for 24 hours.
(§9) Culture growth was evaluated visually by comparison of how microorganisms grew in the presence of tested compounds and in the absence of them. MSC (the minimal suppressing concentration) was set equal to the last dilution of a tested agent which suppressed bacterial culture growth.

Experiment [3] concerns Enterococcus faecalis No. 559. The experiment is described as above. As to conditions: Ent. faecalis 559; 24 h, 36° C. On the procedure:
as §1, §2, §3, §4, §5, §6, §7, §8, §9

For experiment [4], the system named is Staphylococcus aureus No. 100 KC. The experiment is described as above. Conditions: St. aureus 100 KC; 24 h, 36° C. As for the experimental part:
as §1, §2, §3, §4, §5, §6, §7, §8, §9

Experiment [5] has as its system Staphylococcus aureus No. 25923 ATCC. Described as above. As to conditions: St. aureus 25923; 24 h, 36° C. As for the experimental part: as §1, §2, §3, §4, §5, §6, §7, §8, §9
The test system of experiment [6] is Candida albicans No. 927. As to the kind of experiment: Antifungal activity, culture growth with pH indicator. More on the design: key to Test culture growth at various dilutions of the agent: (−) No growth; the indicator is blue; (±) Weak growth; the indicator is yellow, but the precipitate of grown cells looks as a diffuse spot; (+) Strong growth; the indicator is yellow, and the cell precipitate looks as a compact spot. On the procedure:
The subjects of action were Cryptococcus neoformans No. 3465 museum strain cells and Candida albicans No. 927 museum strain cells grown for one day on a glucose-peptone-yeast medium at 32° C. The reference compounds were the following antimycotics: pimafucin, amphotericin, and fluconazole.
Experiments were carried out on round-bottomed 96-well plates (Lenmedpolimer) in two replicas. To the first column (0), added was 10 μL of the stock solution of a water-soluble agent with concentrations of 10^−2 to 10^−3 mol/L; to the second column, added was also the same 10 μL plus 10 μL of the solvent corresponding to the given compound, suspended, 10 μL was transferred to the next well, and so on to the 8th well of the row. Stock solutions of water-insoluble compounds of general formula (I) (compounds V, VIII, XII, XIII, XIV, and hemin) were prepared in DMSO and were diluted with DMSO and the medium. DMSO concentrations in the reaction mixture in a well were ≦5%.
Then, to every well added was 190 μL of a Cr. neoformans cell culture suspension in a synthetic nutritional medium (so that the final cell concentration was approximately 10^3 CFU/mL), this medium containing Bromocresol Blue as a pH-indicator (pH: 5.5; indicator color: blue). As pH reduced to 4.5, the indicator in the culture changed its color to yellow, thereby indicating fungal cell growth. The synthetic medium comprised the following components: salts, amino acids, microelements, vitamins, an antibiotic, and glucose (30 components altogether) [Yarrow, D., “Methods for the Isolation, Maintenance and Identification of Yeasts,” in: The Yeasts. A Taxonomic Study, Ed. by Kurtsman, C. P, and Fell, M., Elsevier, 1998, pp. 77-100]. After being inoculated with a Cr. neoformans cell suspension, the plate was incubated at 32° C. for 1 h with stirring, then transferred to a stationary thermostat and incubated for two and five days at 27° C. After being inoculated with a C. albicans cell suspension, the plates were incubated for 1 h at 32° C. with stirring, then transferred to a stationary thermostat and incubated for one and four days at 27° C.

In experiment [7] the test system is Cryptococcus humicolus. The experiment in a line: Antifungal activity against cryptococcosis causative agent (MSC).
Experiment [8] has as its system Enterococcus faecalis BKM B-871. The experiment in a line: Antibacterial activity (MIC/MBC), serial dilutions in liquid MH medium. On the procedure: (§10) The antibacterial activity of compounds was determined against Bacillus subtilis BKM B-501, Staphylococcus aureus 209P, Enterococcus faecalis BKM B-871, and Micrococcus luteus BKM Ac-2230 strains (acquired from the All-Russia Collection of Microorganisms at the Institute for Biochemistry and Physiology of Microorganisms, Russian Academy of Sciences). The main parameters characterizing the antibacterial activity are the minimal inhibitory concentration (MIC) and minimal bactericidal concentration (MBC). […] MBC is the least concentration that causes the death of all cells.
(§11) MIC was quantified by inhibiting culture growth in a liquid medium with serial dilutions of compounds using a modified procedure [Amsterdam, D., “Susceptibility Testing of Antimicrobials in Liquid Media,” in Antibiotics in Laboratory Medicine, Ed. by Lorian, V., 4th ed., Baltimore: Williams and Wilkins, 1996, pp. 52-111].
(§12) Bacteria were cultured and tests were carried out on an MH liquid medium (Mueller-Hinton medium: a dry extract of beef broth, 4 g/L; starch, 1.5 g/L; casein hydrolyzate, 17.5 g/L; Sigma-Fluka Catalog No. 70192) at 37° C., 100% humidity, and under stirring. Cultures (4th through 7th receeding post-thawing) in the exponential growth phase were used for tests.
(§13) Therefore, a correction for absorption was applied in estimating the optical density of bacterial suspensions for each compound with account for its concentration in the well.
(§14) The protocol for experimental antibacterial activity determination for tested compounds was as follows. A cryovial with the test strain culture (Bacillus subtilis BKIVI B-501, Staphylococcus aureus 209P, Enterococcus faecalis BKM B-871, or Micrococcus luteus BKIVI Ac-2230) in a medium with 7% DMSO stored in liquid nitrogen, was rapidly defrosted, and 1.5 mL of the fresh MH medium was inoculated with 100 μL of the cell suspension. Cells were grown for one day at 37° C. and stirred on an orbital shaker at 150 rpm. The morphologic features of the strain and the absence of contamination with foreign bacteria were verified by: (a) inoculation on an agarized (15 g/L agar) MH medium and observation of the shape and color of the grown colonies and (b) examination of characteristic morphologic features under a microscope (Mikmed-2, LOMO, Russia) equipped with a 40× objective lens. Further bacteria were cultured in 1 mL of the liquid MH medium at 37° C. under stirring. The cells were reseeded every day. Cell cultures were used in tests starting with 3rd reseeding and ending with 6th one.
(§15) For testing, 5 μL of a bacterial suspension in the stationary growth phase was transferred to 1 mL of a sterile MH medium and incubated until the exponential growth phase was attained (3 to 5 h, 37° C., stirring at 150 rpm). To estimate the microorganisms concentration, the optical density (A) of the resulting bacterial culture was measured at a wavelength of 595 nm. The value of A=0.2 measured from a […] portion of the cell suspension in a 96-well plate, with a correction for the medium absorption applied, was set to correspond to 4×10^8 cells/mL for both strains used. Taking into account the cell concentration measurements, the suspension was diluted with the MH medium to a concentration of from 5×10^4 to 1×10^5 cells/mL and transferred to a sterile 96-well plate in an amount of 100 μL, per well. Then, the cells were added with tested compounds and twofold serial dilutions of these compounds in plate's wells were made.
(§16) The controls used were: 100 μL of an additive-free bacterial culture (four wells); a bacterial culture added with 1% DMSO or water in the same volume as in the wells with the maximal concentration of the tested compounds (four wells); and 100 μL of the sterile MH medium without bacteria and without tested compounds for control of occasional contamination in the plate (four wells).

Experiment [9] deals with Staphylococcus aureus 209P. The experiment is described as above. On the procedure:
as §10, §11, §12, §13, §14, §15, §16

Experiment [10] has as its system Bacillus subtilis BKM B-501. The description is as above. As for the experimental part: as §10, §11, §12, §13, §14, §15, §16
The subject of experiment [11] is Micrococcus luteus BKM Ac-2230. The experiment is described as above. On the procedure:
as §10, §11, §12, §13, §14, §15, §16

In general, MBC refers to the smallest concentration meeting the test's criterion for killing. What is called MIC is the lowest concentration that inhibits growth of the organism.

Some results are limits rather than exact numbers.

As for `C=CC1=C(C)c2cc3[n-]c(cc4nc(cc5[n-]c(cc1n2)c(C)c5CCC(=O)N[C@@H](CCCNC(=N)N)C(=O)N[C@@H](CCCNC(=N)N)C(=O)OC)C(CCC(=O)N[C@@H](CCCNC(=N)N)C(=O)N[C@@H](CCCNC(=N)N)C(=O)OC)=C4C)c(C)c3C=C.[Cl-].[Fe+3]` [Compound XXI, 6,7-bis[(N^α-L-Arginyl Methyl Ester)-L-Arginyl]-Protohemin IX], the “MICs for hemin derivatives against Gr+ strains” value in experiment [1] was >50 µM; in [2] it was 50 µM; in experiment [3], 50 µM; in experiment [4], 50 µM; in [5], 50 µM.
On to “Protohemin IX 6(7)-Mono(-Val-Gly-Ala-D-Leu-Ala-D-Val-Val-D-Val-Trp-D-Leu-X-D-Leu-Trp-D-Leu-Trp-NH—CH2CH2OH)amide [Compound XII]”, for which the “Test culture growth at various dilutions of the agent” value in experiment [6] (dilution 0: 1 × 10^−4 M) was “±”; in experiment [6] (dilution : 2 of 1 × 10^−4 M), “±”; in experiment [6] (dilution : 4 of 1 × 10^−4 M) it was “±”; in experiment [6] (dilution : 8 of 1 × 10^−4 M), “+”; in experiment [6] (dilution : 16 of 1 × 10^−4 M) it was “+”; in experiment [6] (dilution : 32 of 1 × 10^−4 M) it was “+”. For the same molecule, the “Test culture growth at various dilutions of the agent” value in experiment [6] (dilution : 64 of 1 × 10^−4 M) is “+”. Besides, the MSC in experiment [7] was determined as 12.5 µM. The minimum bactericidal concentration (MBC) is >50^3 μM in experiment [8], >50^2 μM in experiment [9], 38 ± 13 µM in experiment [10] and >6.3^3 μM in experiment [11]. Moreover, the MIC in [8] (20 h, MH medium) was found to be 50 µM; in [9] (20 h, MH medium) it was 50 µM; in [10] (20 h, MH medium), 38 ± 13 µM; in experiment [11] (20 h, MH medium), 1.6 µM.
